Test results from patent EP0377642B1, “HERBICIDES FOR WEED CONTROL IN RICE” (E.I. DU PONT DE NEMOURS AND COMPANY, priority 1987, dated 1989).

Experiments:
Ludwigia linifolia [1] = assay: Herbicidal efficacy with Bensulfuron methyl and 2,4-D in Thailand (Table 19); format: in vivo; details: 13 days after treatment
How it was run: (§1)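 Spray treatments, given solo or as mixtures with other herbicides, are applied by hand sprayer to direct-seeded or transplanted rice grown in the field in the U.S. and Southeast Asia.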

Ludwigia linifolia [2] = assay: Herbicidal efficacy with Bensulfuron methyl and 2,4-D in Thailand (Table 18); format: in vivo; details: 13 days after treatment
How it was run: as §1

Measured: % CONTROL OR INJURY LL

COC(=O)c1ccccc1CS(=O)(=O)NC(=O)Nc1nc(OC)cc(OC)n1 [Bensulfuron methyl, methyl 2-[[[[[(4,6-dimethoxy-2-pyrimidinyl)amino]carbonyl]amino]sulfonyl]methyl]benzoate]
100%: Ludwigia linifolia [1]; 10 GAI/HA | Ludwigia linifolia [1]; 15 GAI/HA | Ludwigia linifolia [1]; 20 GAI/HA | Ludwigia linifolia [2]; 10 GAI/HA | Ludwigia linifolia [2]; 15 GAI/HA | Ludwigia linifolia [2]; 20 GAI/HA
